For seven molecules, Ki results are on record in ChEMBL document CHEMBL3352142, “Discovery of a new class of cinnamyl-triazole as potent and selective inhibitors of aromatase (cytochrome P450 19A1)” (Bioorg Med Chem Lett, 2014).

Structures are written as SMILES. pKi: −log10 of the molar value.

The target of assay [1] is T1, Aromatase (Homo sapiens, UniProt P11511).
T1 sequence (P11511 whole entry): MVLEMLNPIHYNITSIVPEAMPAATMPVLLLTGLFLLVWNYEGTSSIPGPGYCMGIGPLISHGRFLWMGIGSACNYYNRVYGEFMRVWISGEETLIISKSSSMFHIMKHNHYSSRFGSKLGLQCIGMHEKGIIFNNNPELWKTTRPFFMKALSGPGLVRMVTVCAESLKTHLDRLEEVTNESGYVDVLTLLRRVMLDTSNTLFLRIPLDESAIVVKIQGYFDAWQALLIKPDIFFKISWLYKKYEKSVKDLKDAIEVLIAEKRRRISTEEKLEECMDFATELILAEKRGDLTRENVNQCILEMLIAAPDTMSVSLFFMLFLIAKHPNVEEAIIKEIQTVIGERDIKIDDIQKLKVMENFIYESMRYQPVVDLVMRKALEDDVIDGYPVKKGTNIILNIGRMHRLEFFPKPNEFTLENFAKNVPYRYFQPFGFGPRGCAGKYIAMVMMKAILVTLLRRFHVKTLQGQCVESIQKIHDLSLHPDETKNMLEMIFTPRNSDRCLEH
Put plainly: Irreversible inhibition of recombinant human CYP19A1 assessed as inhibition of DBF conversion to fluorescein by-product by fluorometry.

Assay [2] addresses T1, Aromatase.
Description: Inhibition of recombinant human CYP19A1 assessed as inhibition of DBF conversion to fluorescein by-product by fluorometry
Assay [3] deals with T1, Aromatase. Put plainly: Reversible inhibition of recombinant human CYP19A1 assessed as inhibition of DBF conversion to fluorescein by-product by fluorometry.

In general, pKi refers to the Ki on a negative log10 scale, so that one unit is a factor of ten. Turning to `CCOC(=O)c1nnn(Cc2ccccc2)c1-c1ccccc1`, the pKi in assay [1] was 5.85.

In assay [2], `CCOC(=O)c1nnn(Cc2ccccc2)c1-c1ccc(Cl)cc1` had a pKi of 6.44.

Turning to `CCOC(=O)c1nnn(Cc2ccccc2)c1-c1ccc2c(c1)OCO2`, the pKi in assay [2] is 6.15.

For the molecule `CCOC(=O)c1nnn(Cc2cccc(Br)c2)c1-c1ccccc1`, the pKi in assay [2] is 6.82.

Take `CCOC(=O)c1nnn(Cc2cccc(Br)c2)c1-c1ccc(Br)cc1`: the pKi in assay [3] was 7.70.

In turn, `CCOC(=O)c1nnn(Cc2ccccc2)c1-c1ccc(C)cc1` showed a pKi in assay [2] of 6.15.

`CCOC(=O)c1nnn(Cc2ccccc2)c1-c1ccc(Br)cc1`: in assay [3], the pKi was 6.19.
